Measurements published in patent US20200368247A1, “CENICRIVIROC FOR THE TREATMENT OF FIBROSIS” (Tobira Therapeutics, Inc., priority 2014, published 2020).

Tests used:
[1] = Study 202 biomarkers of inflammation; type: in vivo, human
Protocol: As an exploratory analysis, levels of inflammation biomarkers MCP-1, sCD14, high sensitivity C-reactive protein [hs-CRP], interleukin-6 [IL-6], D-dimer, and fibrinogen) were measured. Baseline values and changes from baseline at Week 24 and Week 48 of MCP-1, sCD14, hs-CRP, IL-6, D-dimer, and fibrinogen are summarized in Table 25.
The sCD14 samples were originally analyzed in 2 separate batches: Batch 1 included samples leading up to the Week 24 primary analysis and Batch 2 included Week 32 and Week 48 (end of study) samples. A repeat analysis of archived samples all analyzed in one batch was conducted for consistency in analysis across time points. To control for the effects of covariates, a linear mixed-model repeated-measures analysis was conducted on the changes from baseline in sCD14 (analysis dated September 2013).

[2] = system: HIV-1; assay: Study 202 Phase 2b, virologic response (HIV-1 RNA <50 copies/mL, FDA Snapshot), with FTC/TDF; conditions: for subjects with virologic success (HIV-1 RNA <50 copies/mL): EFV
Source text: Subjects with a history of HIV-2, hepatitis B and/or C, cirrhosis of the liver or any known active or chronic active liver disease were excluded from the study.
The primary efficacy endpoint was virologic response at Week 24, defined as HIV-1 RNA <50 copies/mL using the FDA Snapshot Algorithm.

[3] = Study 202 treatment-emergent laboratory abnormalities (DAIDS grade); type: in vivo, human
Source text: The 12th subject (Subject 42001) had 2 consecutive CPK elevations (Grade 3 followed by Grade 4) that returned to normal values while continuing treatment at a subsequent visit. None of the CPK elevations were associated with clinical symptoms; no subjects discontinued due to CPK elevations and there were no differences in AEs related to musculoskeletal disorders between the CVC and EFV arms.
The number of subjects with graded treatment-emergent laboratory abnormalities in selected liver parameters of interest is shown in Table 34. No Grade 4 ALT or AST elevations were observed. Except for one Grade 3 AST elevation, all ALT and AST elevations were Grade 1 or Grade 2. […] All abnormalities in bilirubin were Grade 1 or Grade 2. […]

[4] = Study 202 post-hoc APRI and FIB-4 fibrosis index scores; type: in vivo, human
Protocol: APRI and FIB-4 scores were calculated. Change in score category from baseline (BL) to Weeks 24 and 48 was assessed in patients with non-missing data. Correlations between changes from BL in APRI and FIB-4 scores, and MCP-1 (CCR2 ligand) and sCD14 (inflammatory biomarker) levels were evaluated.

[5] = All CVC (N = 115), EFV (N = 28)
[6] = All CVC (N = 115), EFV (N = 28), through Week 48

Question: With `O=C1Nc2ccc(Cl)cc2[C@@](C#CC2CC2)(C(F)(F)F)O1` [EFV, efavirenz, reference compound] as the compound, how does the “sCD14 Baseline value, Mean” value ([1]; EFV 600 mg) read?
Answer: The value was 2e+06 pg/mL.

Question: And the “sCD14 change from baseline at Week 12, Mean” value ([1]; EFV 600 mg)?
Answer: Its value is 90000 pg/mL.

Question: And the “sCD14 change from baseline at Week 12, Median” value ([1]; EFV 600 mg)?
Answer: Its value is 180000 pg/mL.

Question: What about the “sCD14 change from baseline at Week 24, Mean” value ([1]; EFV 600 mg) of the same compound?
Answer: The value was 230000 pg/mL.

Question: And the “sCD14 change from baseline at Week 24, Median” value ([1]; EFV 600 mg)?
Answer: The value was 130000 pg/mL.

Question: What about the “sCD14 change from baseline at Week 32, Mean” value ([1]; EFV 600 mg) of the same compound?
Answer: The value was 480000 pg/mL.

Question: And the “sCD14 change from baseline at Week 32, Median” value ([1]; EFV 600 mg)?
Answer: Its value is 170000 pg/mL.

Question: What about the “sCD14 change from baseline at Week 48, Mean” value ([1]; EFV 600 mg) of the same compound?
Answer: Its value is 640000 pg/mL.

Question: And the “sCD14 change from baseline at Week 48, Median” value ([1]; EFV 600 mg)?
Answer: Its value is 460000 pg/mL.

Question: What about the “plasma MCP-1 over time” value ([1]; Study 202, up to Week 48) of the same compound?
Answer: Its value is “remained at baseline values”.

Question: What about the “subjects who prematurely discontinued the study” value ([2]; EFV arm) of the same compound?
Answer: Its value is 39%.

Question: What about the “subjects with virologic success (HIV-1 RNA <50 copies/mL)” value ([2]; Week 24) of the same compound?
Answer: The value was 71%.

Question: What about the “subjects with virologic success (HIV-1 RNA <50 copies/mL)” value ([2]; Week 48) of the same compound?
Answer: The value was 50%.

Question: And the “ALT abnormality, worst Grade 1” value [3, 5]?
Answer: Its value is 2 (7%) n (%).

Question: And the “ALT abnormality, worst Grade 2” value [3, 5]?
Answer: Its value is 0 n (%).

Question: And the “ALT abnormality, worst Grade 3” value [3, 5]?
Answer: Its value is 0 n (%).

Question: And the “ALT abnormality, worst Grade 4” value [3, 5]?
Answer: The value was 0 n (%).

Question: What about the “AST abnormality, worst Grade 1” value [3, 5] of the same compound?
Answer: The value was 3 (11%) n (%).

Question: What about the “AST abnormality, worst Grade 2” value [3, 5] of the same compound?
Answer: Its value is 0 n (%).

Question: What about the “AST abnormality, worst Grade 3” value [3, 5] of the same compound?
Answer: The value was 0 n (%).

Question: What about the “AST abnormality, worst Grade 4” value [3, 5] of the same compound?
Answer: The value was 0 n (%).

Question: And the “Alanine aminotransferase (ALT) abnormality, any worst grade” value [3, 5]?
Answer: Its value is 2 (7%) n (%).

Question: What about the “Aspartate aminotransferase (AST) abnormality, any worst grade” value [3, 5] of the same compound?
Answer: The value was 3 (11%) n (%).

Question: And the “Bilirubin abnormality, any worst grade” value [3, 5]?
Answer: The value was 1 (4%) n (%).

Question: And the “Bilirubin abnormality, worst Grade 1” value [3, 5]?
Answer: The value was 1 (4%) n (%).

Question: And the “Bilirubin abnormality, worst Grade 2” value [3, 5]?
Answer: The value was 0 n (%).

Question: And the “Bilirubin abnormality, worst Grade 3” value [3, 5]?
Answer: The value was 0 n (%).

Question: What about the “Bilirubin abnormality, worst Grade 4” value [3, 5] of the same compound?
Answer: Its value is 0 n (%).

Question: What about the “AST increased, Grade 3” value [3, 6] of the same compound?
Answer: Its value is 0 n (%).

Question: And the “AST increased, Grade 4” value [3, 6]?
Answer: The value was 0 n (%).

Question: And the “Any Grade 3 laboratory abnormality” value [3, 6]?
Answer: Its value is 3 (11%) n (%).

Question: And the “Any Grade 3 or Grade 4 laboratory abnormality” value [3, 6]?
Answer: The value was 4 (14%) n (%).

Question: And the “Any Grade 4 laboratory abnormality” value [3, 6]?
Answer: The value was 1 (4%) n (%).

Question: What about the “Aspartate aminotransferase (AST) increased (Grade 3 or 4)” value [3, 6] of the same compound?
Answer: The value was 0 n (%).

Question: What about the “CPK increased, Grade 3” value [3, 6] of the same compound?
Answer: Its value is 2 (7%) n (%).

Question: What about the “CPK increased, Grade 4” value [3, 6] of the same compound?
Answer: The value was 0 n (%).

Question: What about the “Creatine phosphokinase (CPK) increased (Grade 3 or 4)” value [3, 6] of the same compound?
Answer: Its value is 2 (7%) n (%).

Question: What about the “Fibrinogen decreased (Grade 3 or 4)” value [3, 6] of the same compound?
Answer: Its value is 0 n (%).

Question: What about the “Fibrinogen decreased, Grade 3” value [3, 6] of the same compound?
Answer: The value was 0 n (%).

Question: And the “Fibrinogen decreased, Grade 4” value [3, 6]?
Answer: Its value is 0 n (%).

Question: And the “Hemoglobin decreased (Grade 3 or 4)” value [3, 6]?
Answer: Its value is 0 n (%).

Question: What about the “Hemoglobin decreased, Grade 3” value [3, 6] of the same compound?
Answer: The value was 0 n (%).

Question: What about the “Hemoglobin decreased, Grade 4” value [3, 6] of the same compound?
Answer: Its value is 0 n (%).

Question: What about the “Neutrophils decreased (Grade 3 or 4)” value [3, 6] of the same compound?
Answer: Its value is 1 (4%) n (%).

Question: And the “Neutrophils decreased, Grade 3” value [3, 6]?
Answer: The value was 0 n (%).

Question: What about the “Neutrophils decreased, Grade 4” value [3, 6] of the same compound?
Answer: The value was 1 (4%) n (%).

Question: And the “Phosphate decreased (Grade 3 or 4)” value [3, 6]?
Answer: The value was 1 (4%) n (%).

Question: And the “Phosphate decreased, Grade 3” value [3, 6]?
Answer: Its value is 1 (4%) n (%).

Question: And the “Phosphate decreased, Grade 4” value [3, 6]?
Answer: Its value is 0 n (%).

Question: And the “Prothrombin time/international normalized ratio increased (Grade 3 or 4)” value [3, 6]?
Answer: Its value is 0 n (%).

Question: And the “Prothrombin time/international normalized ratio increased, Grade 3” value [3, 6]?
Answer: The value was 0 n (%).

Question: What about the “Prothrombin time/international normalized ratio increased, Grade 4” value [3, 6] of the same compound?
Answer: Its value is 0 n (%).

Question: And the “Any graded (Grade 1-4) laboratory abnormality, %” value ([3]; EFV)?
Answer: The value was 89%.

Question: And the “Worst Grade 1 laboratory abnormality, %” value ([3]; EFV)?
Answer: Its value is 46%.

Question: And the “Worst Grade 2 laboratory abnormality, %” value ([3]; EFV)?
Answer: Its value is 29%.

Question: What about the “Worst Grade 3 laboratory abnormality, %” value ([3]; EFV) of the same compound?
Answer: The value was 11%.

Question: What about the “Worst Grade 4 laboratory abnormality, %” value ([3]; EFV) of the same compound?
Answer: Its value is 4%.

Question: What about the “APRI 0.5-1.5, patients” value ([4]; Baseline) of the same compound?
Answer: Its value is 4%.

Question: And the “APRI <0.5, patients” value ([4]; Baseline)?
Answer: The value was 96%.

Question: What about the “FIB-4 <1.45, patients” value ([4]; Baseline) of the same compound?
Answer: Its value is 100%.

Question: What about the “subjects with decrease in FIB-4 score by one category” value ([4]; EFV arm, Weeks 24 and 48) of the same compound?
Answer: Its value is “no subject”.

Question: And the “APRI <0.5, patients” value ([4]; Week 24)?
Answer: The value was 100%.

Question: And the “APRI decreased 1 category from baseline, patients” value ([4]; Week 24)?
Answer: The value was 5%.

Question: What about the “FIB-4 <1.45, patients” value ([4]; Week 24) of the same compound?
Answer: Its value is 100%.

Question: What about the “APRI <0.5, patients” value ([4]; Week 48) of the same compound?
Answer: Its value is 100%.

Question: What about the “APRI decreased 1 category from baseline, patients” value ([4]; Week 48) of the same compound?
Answer: Its value is 6%.

Question: And the “FIB-4 1.45-3.25, patients” value ([4]; Week 48)?
Answer: Its value is 6%.

Question: And the “FIB-4 <1.45, patients” value ([4]; Week 48)?
Answer: The value was 94%.
